From article PMC10342533, “Novel Tetrazole Derivatives Targeting Tubulin Endowed with Antiproliferative Activity against Glioblastoma Cells” (International Journal of Molecular Sciences, 2023) come the findings set out here.

For series [1], the system named is HeLa (cervix epithelioid carcinoma). The experiment in a line: Cell growth inhibition, MTT assay, HeLa. Type of series: cell-based. The settings on record: Homo sapiens.
In another series the test system is MCF7 cells. Description: Apoptotic cell death quantification, Annexin V-FITC/PI, MCF7. Format: cell-based, human. The settings on record: MCF7, 72 h, 100 nM; for Necrotic cells: PI+ AnV−. The protocol:
To characterize the cell death mechanism induced by the representative compounds 10, 12, or 14 at 100 nM on HeLa, MCF7, and U87 MG cells, dual-channel flow cytometry studies were carried out for cells in the absence (negative control) or presence of compounds 72 h after treatment. Fluorescein isothiocyanate-labeled Annexin V (FITC-AnV) and propidium iodide (PI) were used for double staining. Regarding their response to AnV and PI, cells can be identified as viable (PI−, AnV−), early apoptotic (PI−, AnV+), late apoptotic or secondary necrotic (PI+, AnV+), or necrotic (PI+, AnV−). The translocation of the phosphatidylserine from the inner to the outer cell membrane causes the response of apoptotic cells to AnV, whereas only cells suffering some kind of membrane disintegration (late apoptotic or necrotic cells) allow PI permeation.
Following the manufacturer’s guidelines, an Annexin V-FITC/PI apoptosis detection kit (Immunostep, Salamanca, Spain) was used to quantify HeLa, MCF7, or U87 MG cells. Cells were seeded in 12-well plates (5·10^4 cells/mL, 1 mL/well) and incubated in complete DMEM medium (see above) at 37 °C and 5% CO2 atmosphere for 24 h. Then, the cells were treated with selected compounds (10, 12, or 14) at 100 nM, and untreated cells were used as negative controls. Then, 72 h after incubation, the cells were harvested, centrifugated, resuspended in the Annexin V binding buffer, and incubated in darkness with Annexin V-FITC/PI for 15 min at room temperature. The samples were analyzed by using a BD Accuri™ C6 Plus Flow Cytometer (BD Biosciences), and acquired data were analyzed via BD Accuri™ C6 Software (version 1.0.264.21).

In series [2] the test system is microtubule network of HeLa cells. Description: Immunofluorescence confocal microscopy of microtubule network, HeLa. Format: cell-based, human. To be noted: 24 h, 100 nM, α-tubulin immunofluorescence. As to the method:
To elucidate if the interaction of the compounds with tubulin inferred from the in vitro TPI experiments has consequences on cellular microtubules, we studied the effect of representative compounds on the microtubule network of HeLa, MCF7, and U87 MG cells 24 h after treatment via the use of immunofluorescence confocal microscopy through α-tubulin and nuclei labeling.
HeLa, MCF7, and U87 MG cells (8·10^4 cells/mL) were grown on 0.01% poly-L-lysine pre-coated square glass coverslips (22 mm^2), deposited on 6-well plates (1 coverslip/well), and incubated in complete DMEM medium (see above) at 37 °C and 5% CO2 atmosphere for 24 h. Then, the cells were incubated for 24 h in the presence or absence (negative controls) of selected compounds (10, 12, or 14) at 100 nM. After drug treatment incubation, medium was removed, and coverslips were washed three times with PBS, fixed with 4% formaldehyde in PBS for 10 min, permeabilized with 0.5% Triton X-100, (Sigma-Aldrich, St. Louis, MO, USA) in PBS for 90 s at 4 °C, blocked with 10% BSA in PBS for 30 min, and washed with PBS four times. The coverslips were incubated for 1 h with anti-α-tubulin mouse monoclonal antibody (Sigma-Aldrich, St. Louis, MO, USA), diluted 1:200 in PBS containing 3% BSA, washed four times with PBS, and then incubated in darkness with the fluorescent secondary antibody Alexa Fluor 488 goat anti-mouse IgG (Molecular Probes, Invitrogen, Eugenen, OR, USA) and diluted 1:400 in PBS containing 1% BSA for 1.5 h. The coverslips were washed four times with PBS, and a drop of ProLong™ Gold Antifade Mountant containing DAPI (ThermoFisher, Waltham, MA, USA) was added for cell nuclei staining. The samples were analyzed via confocal microscopy, which was performed by using a LEICA SP5 microscope DMI-6000V model coupled to a LEICA LAS AF software computer.

For series [3], the system named is T98G (temozolomide resistant glioblastoma). The experiment in a line: Cell growth inhibition, MTT assay, T98G. To be noted: Homo sapiens. Type of series: cell-based.
A short description of series [4]: Aqueous solubility, shake-flask method, phosphate buffer pH 7.4. Type of series: physicochemical. The settings on record: thermodynamic from solid, phosphate buffer pH 7.4, shake-flask, mean ± SD of three experiments. An outline of the steps:
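Saturation shake-flask: 5 mg compound suspended in 500 µL phosphate buffer pH 7.4, shaken 72 h at room temperature, filtered. Dissolved concentration by UV absorbance at λmax against per-compound calibration lines; mean of three independent experiments.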

≈ marks a conversion by molar mass, not a printed value.

As for `CSc1cc(-c2nnnn2-c2ccc3c(ccn3C)c2)cc(Cl)n1` [Compound 10, 5-(5-(2-chloro-6-(methylsulfanyl)pyridin-4-yl)-1H-tetrazol-1-yl)-1-methyl-1H-indole], the IC50 in series [1] (72 h after drug exposure) stood at 39 nM; in series [1] (mean ± SD, Table S1), 39.3 ± 0.2 nM; in series [3] (72 h, 72 h after drug exposure) it was 25 nM. Besides, the “early and late apoptotic populations” value in the series with MCF7 cells is 22%. Further, in the series on MCF7 cells, the Necrotic cells is 2.3%. In series [2], the “effect on microtubule network” value is given as “severe microtubule network disruption”. In series [4], this compound returned a solubility at 72 h of 26.1 ± 0.2 µg/mL (≈ 73.1 µM).
Regarding `Cn1cc(C=O)c2cc(-n3nnnc3-c3cc(Cl)nc(Cl)c3)ccc21` [Compound 12, 5-(5-(2,6-dichloropyridin-4-yl)-1H-tetrazol-1-yl)-1-methyl-1H-indole-3-carbaldehyde], the IC50 stood at 36 nM in series [1] (72 h after drug exposure); 36.4 ± 0.4 nM in series [1] (mean ± SD, Table S1); 26 nM in series [3] (72 h, 72 h after drug exposure); 26.2 ± 0.2 nM in series [3] (mean ± SD, Table S1). Also, the “early and late apoptotic populations” value with MCF7 cells is reported as 8%. This compound yielded a Necrotic cells with MCF7 cells of 7%. Further, the “effect on microtubule network” value in series [2] is “severe microtubule network disruption”. The solubility at 72 h in series [4] was 33.1 ± 0.3 µg/mL (≈ 88.7 µM).
As for `CSc1cc(-c2nnnn2-c2ccc3c(c2)c(C=O)cn3C)cc(Cl)n1` [Compound 14, 5-(5-(2-chloro-6-(methylsulfanyl)pyridin-4-yl)-1H-tetrazol-1-yl)-1-methyl-1H-indole-3-carbaldehyde], the IC50 in series [1] (72 h after drug exposure) was determined as 24 nM; in series [1] (mean ± SD, Table S1) it was 24.2 ± 0.1 nM; in series [3] (72 h, 72 h after drug exposure), 19 nM. Moreover, in the series on MCF7 cells, the “early and late apoptotic populations” value was determined as 29%. Further, the Necrotic cells with MCF7 cells is on record as 2.6%. The “effect on microtubule network” value in series [2] is “severe microtubule network disruption”. In addition, the solubility at 72 h in series [4] came out at 36.9 ± 0.3 µg/mL (≈ 95.9 µM).
